# Test results reported in article PMC2838726 (Molecular cancer therapeutics, 2010).
# Experiments:
# [1] = Safety, adverse events; type: in vivo, human; details: of 11 patients
# [2] = erlotinib 150 mg daily with sorafenib; cycle 1 days +15, 16, 22, 29
# [3] = phase I trial of sorafenib plus gefitinib; cited from earlier work
# [4] = system: RAF signal transduction capacity (MEK1/2 phosphorylation) in monocytes; test: MEK1/2 pShift assay; type: cell-based, human; details: patient 5, one sample, after 7 days of sorafenib (25.9% before sorafenib)
# [5] = Sorafenib plasma pharmacokinetics in patients, with and without erlotinib; type: in vivo, human; details: for Cmax / Tmax / AUC: human, plasma, oral
# [6] = system: incurable solid tumor; test: Tumor response; type: in vivo, human; details: per patient
SMILES,patients needing at least 1 dose delay [1],patients with doses delivered in full throughout the study [1] [patients],patients with doses reduced [1] [patients],patients with drug discontinued [1] [patients],"mean trough erlotinib concentration (Css,min) [2]",change of gefitinib Cmax and AUC in the presence of sorafenib [3],additional monocytes shifted to the upper gate with IL3 versus vehicle (pShift) [4] [%],"differences in PK variables of sorafenib in the presence or absence of erlotinib ([5]; day −2 vs day +15, Wilcoxon signed rank test)",Cmax [5] [ng/mL],Tmax [5] [h],AUC ([5]; 150 mg) [ng·h/mL],AUC ([5]; 400 mg) [ng·h/mL],Cmax ([5]; 400 mg bid) [ng/mL],Tmax ([5]; 400 mg bid) [h],TTP [6] [days]
C#Cc1cccc(Nc2ncnc3cc(OCCOC)c(OCCOC)cc23)c1 [erlotinib],7 patients,6,2,3,around 500 ng/ml,,,,,,,,,,
COc1cc2ncnc(Nc3ccc(F)c(Cl)c3)c2cc1OCCCN1CCOCC1 [gefitinib],,,,,,decrease,,,,,,,,,
CNC(=O)c1cc(Oc2ccc(NC(=O)Nc3ccc(Cl)c(C(F)(F)F)c3)cc2)ccn1 [sorafenib],Nine,4,7,,,,0.7,No statistically significant differences,8600,4,53200,70900,8600,4.2,15
